In PubChem BioAssay (NCI):
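Tested at 5 concentrations; 48 h exposure; 96-well plates; endpoints linearly interpolated, else capped at highest concentration. Definition used: TGI = concentration required for complete inhibition of growth.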

Legend:
Experiment in all cases: NCI anticancer screen, dose series, 48 h
[1] = tested on: 786-0 renal
[2] = tested on: A498 renal
[3] = tested on: A549 NSCLC
[4] = tested on: ACHN renal
[5] = tested on: BT-549 breast
[6] = tested on: CAKI-1 renal
[7] = tested on: CCRF-CEM leukemia
[8] = tested on: COLO 205 colon
[9] = tested on: DU-145 prostate
[10] = tested on: HCC-2998 colon
[11] = tested on: HCT-116 colon
[12] = tested on: HCT-15 colon
[13] = tested on: HL-60(TB) leukemia
[14] = tested on: HOP-62 NSCLC
[15] = tested on: HS 578T breast
[16] = tested on: HT29 colon
[17] = tested on: IGROV1 ovarian
[18] = tested on: K-562 leukemia
[19] = tested on: KM12 colon
[20] = tested on: M14 melanoma
[21] = tested on: MALME-3M melanoma
[22] = tested on: MCF7 breast
[23] = tested on: MDA-MB-231 breast
[24] = tested on: MDA-MB-435
[25] = tested on: MDA-N
[26] = tested on: MOLT-4 leukemia
[27] = tested on: NCI-H226 lung
[28] = tested on: NCI-H23 lung
[29] = tested on: NCI-H460 lung
[30] = tested on: NCI-H522 lung
[31] = tested on: NCI/ADR-RES ovarian
[32] = tested on: OVCAR-3 ovarian
[33] = tested on: OVCAR-5 ovarian
[34] = tested on: OVCAR-8 ovarian
[35] = tested on: PC-3 prostate
[36] = tested on: SF-268 CNS
[37] = tested on: SF-295 CNS
[38] = tested on: SF-539 CNS
[39] = tested on: SK-MEL-2 melanoma
[40] = tested on: SK-MEL-28 melanoma
[41] = tested on: SK-MEL-5 melanoma
[42] = tested on: SK-OV-3 ovarian
[43] = tested on: SN12C renal
[44] = tested on: SNB-19 CNS
[45] = tested on: SNB-75 CNS
[46] = tested on: SR leukemia
[47] = tested on: SW-620 colon
[48] = tested on: T-47D breast
[49] = tested on: TK-10 renal
[50] = tested on: U251 CNS
[51] = tested on: UACC-257 melanoma
[52] = tested on: UACC-62 melanoma
[53] = tested on: UO-31 renal
[54] = tested on: EKVX NSCLC
[55] = tested on: HOP-92 NSCLC
[56] = tested on: LOX IMVI melanoma
[57] = tested on: RPMI-8226 leukemia
[58] = tested on: OVCAR-4 ovarian

Measured: TGI

CC(CO)(CO)N1C(=O)C2C3c4ccccc4C(c4ccccc43)C2C1=O (stereo not given)
not listed: [54] | [55] | [56] | [57] | [58]
> 100 µM: all other assays above

CCOP(=O)(OCC)/C(C#N)=C/c1nccn1C
not listed: [6] | [17] | [21] | [41] | [42] | [52] | [58]
> 100 µM: all other assays above

Clc1ccc(Cc2nc3cc(Cl)ccc3o2)cc1
68.7 µM: [42]
33.1 µM: [41]
92.3 µM: [7]
35.4 µM: [39]
53.2 µM: [10]
91.2 µM: [50]
97 µM: [30]
71.8 µM: [37]
80.9 µM: [54]
70.9 µM: [32]
87.4 µM: [8]
95.6 µM: [24]
92.2 µM: [51]
97.9 µM: [48]
not listed: [2] | [45]
> 100 µM: all other assays above
